Measured values: publication PMC12676205, “New Se‐Compounds With Antileishmanial, Antitumor, and Carbonic Anhydrase Inhibitory Properties” (Archiv Der Pharmazie, 2025)
Where two headings read alike, the source gives them in different places.

Legend:
[1] = tested on: NCI‐60 human cancer cell lines; assay: NCI-60 one-dose screen, whole panel; format: cell-based; details: 10 µM, 48 h, whole NCI-60 panel
Description: (§1) To explore the potential antiproliferative properties of the newly synthesized derivatives, they were submitted to the National Cancer Institute's (NCI) Developmental Therapeutics Program (DTP) for screening at 10 μM in a panel of approximately 60 human cancer cell lines from different cancer types. The results are reported as the growth percentage (GP), which is the growth of the treated cells with each compound for 48 h compared to the untreated controls (Figure 2). […] The initial screening results are summarized in Figure 2, and the mean GP values of each subpanel are depicted in Figure 3. The full reports are compiled in the Supplementary Section.
(§2) All the reported selenoesters (1–6) were submitted to the DTP of NCI. First, they were screened at a single dose (10^−5 M) against a panel of 60 cancer cell lines derived from different tumor types following the methodology available (https://dtp.cancer.gov/discovery_development/nci-60/methodology.htm). As all the compounds satisfied the threshold inhibition criteria established, they were further assessed at five concentrations (0.01, 0.1, 1, 10, and 100 µM) against the same cell panel to obtain their corresponding dose–response curves and three antitumor parameters (GI50, TGI, and LC50) by regression. GraphPad Prism 7.0 Software was used to represent the corresponding graphs.

[2] = tested on: Ovarian subpanel; assay: NCI-60 one-dose screen, ovarian subpanel; format: cell-based, human; details: 10 µM, 48 h
Description: as §1, §2

[3] = tested on: Melanoma subpanel; assay: NCI-60 five-dose assay, melanoma subpanel; format: cell-based; details: Homo sapiens, 48 h; for GI50: read-out: Mean GI50 Melanoma; for LC50 (50% lethal concentration): read-out: Mean LC50 Melanoma
Description: (§3) All the compounds were selected for further testing since they fulfilled the set NCI one‐dose screening parameters for threshold inhibition. They were tested at five different concentrations (0.01, 0.1, 1, 10, and 100 μM) for 48 h against the same cell line panel and the dose–response curves along with three response parameters (50% growth inhibitory concentration [GI50], the 50% lethal concentration [LC50], and the total growth inhibition [TGI]) were calculated for every cancer cell line. The full reported data and corresponding graphs are compiled in Supporting Information S1. Average values of GI50, TGI, and LC50 values of all the reported selenoesters in all the subpanels are represented in Figure 4.
as §2

[4] = tested on: Ovarian subpanel; assay: NCI-60 five-dose assay, ovarian subpanel; format: cell-based; details: Homo sapiens, 48 h; for GI50: read-out: Mean GI50 Ovarian; for LC50 (50% lethal concentration): read-out: Mean LC50 Ovarian
Description: as §3, §2

[5] = tested on: Melanoma subpanel; assay: NCI-60 one-dose screen, melanoma subpanel; format: cell-based, human; details: 10 µM, 48 h
Description: as §1, §2

[6] = tested on: OVCAR‐5; assay: NCI-60 one-dose screen, OVCAR-5; format: cell-based, human; details: 10 µM, 48 h
Description: as §1, §2

[7] = tested on: HCC‐2998‐resistant colon cancer cells; assay: NCI-60 one-dose screen, HCC-2998; format: cell-based, human; details: 10 µM, 48 h
Description: as §1, §2

[8] = tested on: Prostate subpanel; assay: NCI-60 one-dose screen, prostate subpanel; format: cell-based, human; details: 10 µM, 48 h
Description: as §1, §2

[9] = tested on: L. major promastigotes; assay: Leishmanicidal activity against promastigotes (MTT), L. major; format: cell-based, Leishmania major
Description: The synthesized compounds were tested for their antileishmanial activity against promastigotes of L. major and L. infantum at four concentrations (1, 10, 50, and 100 µM) for 48 h using the 3‐(4,5‐dimethylthiazol‐2‐yl)‐2,5‐diphenyltetrazolium bromide (MTT) assay. In this evaluation, the activity was expressed in IC50 (concentration inhibiting the parasite growth by 50%). […] The CC50 was defined as the concentration of selenoesters that led to a reduction in the viability of the macrophages, such that only 50% of the cells survived when compared to the control group. This cell line, derived from the blood of a human with acute monocytic leukemia, was chosen as it has been widely reported that it resembles tissue macrophages to various extents as well as supports the infection by numerous Leishmania promastigotes. The selectivity indexes (SIs) were calculated as the ratio between toxicity on macrophages (THP‐1 cells)/antileishmanial activity. The data for standard control drugs (miltefosine and paromomycin) are included for comparison purposes.
The promastigotes of L. major (clone VI, MHOM/IL/80/Friendlin) and L. infantum (BCN‐150) were grown at 26°C under continuous shaking in M199 1× medium (Sigma, USA). This media was supplemented with 10% of heat‐inactivated fetal bovine serum (FBS) (Gibco, USA), 0.0005% (w/v) hemin, 0.1 mM adenine, 25 mM HEPES (pH 7.2), 0.0001% (w/v) biotin, and 100 UI/mL penicillin and […] streptomycin (Gibco, USA).
The antileishmanial activity of the reported selenoesters was determined using the MTT assay as previously described during the logarithmic growth phase of the tested promastigotes of L. major and L. infantum. Briefly, the Leishmania parasites were seeded into 96‐well flat‐bottom plates (3 × 10^5 parasites/100 µL) and treated with four different concentrations ranging between 1 and 100 µM of each selenoester at 26°C for 48 h. Afterwards, 20 µL of MTT (5 mg/mL in PBS) was added to each well and incubated for 4 h under the same conditions. Then, 80 µL/well of DMSO was added to dissolve the resultant formazan crystals. The absorbances were determined on a Multiskan EX photometric plate reader for microplates at 540 nm. Three independent experiments performed in triplicate were carried out for each compound, and OriginPro 8.5.1 Software was used to calculate the IC50 values by fitting the data to a dose–inhibition sigmoid curve.

[10] = tested on: Leukemia subpanel; assay: NCI-60 five-dose assay, leukemia subpanel; format: cell-based; details: Homo sapiens, 48 h; for GI50: read-out: Mean GI50 Leukemia; for CC50: read-out: Mean LC50 Leukemia
Description: as §3, §2

[11] = tested on: Breast subpanel; assay: NCI-60 one-dose screen, breast subpanel; format: cell-based, human; details: 10 µM, 48 h
Description: as §1, §2

[12] = tested on: HaCaT cells; assay: MTS cell viability assay in nonmalignant HaCaT cells; format: cell-based, human; details: 48 h, mean ± SD
Description: (MTS) assay as previously described. Thus, the selenoesters were tested at seven different concentrations (1, 2.5, 5, 10, 25, 50, and 100 µM) during 48 h to determine their corresponding IC50 values.
The effect of each compound on the cell viability of HaCaT cells was tested using the MTS assay. The compounds (1–6) were dissolved in DMSO at a concentration of 10^−2 M, and serial dilutions were prepared. Briefly, the cells were seeded in a 96‐well plate at a density of 1 × 10^4 cells per well. After 24 h of incubation, the cells were treated with either DMSO or seven different concentrations of each selenoester (1, 2.5, 5, 10, 25, 50, and 100 µM) for 48 h in triplicate. At the end of the treatment duration, the media were removed and fresh media were added containing 20 μL of MTS (Promega, USA) per well. After 1 h incubation, the absorbances were read at a wavelength of 490 nm in a 96‐well multiscanner, and the ratio of viable cells was calculated. Data were obtained from at least three independent experiments performed in triplicate. The IC50 values were calculated using OriginPro 8.5.1 Software for nonlinear curve fitting, and Graphpad Prism 7.0 Software was used to represent the corresponding graphs.

[13] = Leishmania major, 48 h, mean ± SD, read-out: L. major IC50
[14] = 48 h, mean ± SD, read-out: L. major IC50
[15] = read-out: L. major IC50, 48 h, mean ± SD

Row | Structure (SMILES) | mean GP (growth percentage) [1] [%] | average growth cell value, Ovarian [2] [%] | GI50 [3] [µM] | LC50 (50% lethal concentration) [3] [µM] | GI50 [4] [µM] | LC50 (50% lethal concentration) [4] [µM] | average growth cell value, Melanoma [5] [%] | behaviour in OVCAR‐5 [6] | behaviour in HCC‐2998 [7] | average growth cell value, Prostate [8] [%] | IC50 [9, 13] [µM] | GI50 [10] [µM] | CC50 [10] [µM] | average growth cell value, Breast [11] [%] | IC50 ([12]; Homo sapiens, HaCaT) [µM] | IC50 [9, 14] [µM] | IC50 [9, 15] [µM] | IC50 [12] [µM]
1 | N#Cc1ccc(NC(=O)C[Se]C(=O)c2ccccc2)cc1C(F)(F)F [Compound 1, Se‐(2‐((4‐cyano‐3‐(trifluoromethyl)phenyl)amino)‐2‐oxoethyl)benzoselenoate] | −94.16 | -92.77 | 1.36 | 5.49 | 1.77 | 6.4 | -94.28 | cytotoxic activity | susceptible | -95.47 | 26.6 ± 1.81 | 1.01 | 4.36 | -86.92 | 11.8 ± 1.89 |  |  | 
2 | O=C(C[Se]C(=O)c1ccco1)Nc1ccc([N+](=O)[O-])c(C(F)(F)F)c1 [Compound 5, Se‐(2‐((4‐nitro‐3‐(trifluoromethyl)phenyl)amino)‐2‐oxoethyl)furan‐2‐carboselenoate] |  | -38.57 | 1.7 |  | 2.28 |  | -56.28 | cytotoxic activity | susceptible | -27.89 | 18.3 ± 5.9 | 2.51 | > 100 | -28.95 |  |  |  | 
3 | O=C(C[Se]C(=O)c1ccccc1)Nc1ccc([N+](=O)[O-])c(C(F)(F)F)c1 [Compound 2, Se‐(2‐((4‐nitro‐3‐(trifluoromethyl)phenyl)amino)‐2‐oxoethyl)benzoselenoate] | −91.96 | -92.98 | 1.24 | 5.37 | 1.57 | 5.83 | -94.64 | cytotoxic activity | susceptible | -94.40 | 27.1 ± 3.35 | 0.9 | 4.34 | -83.18 | 9.49 ± 0.42 |  |  | 
4 | O=C(C[Se]C(=O)c1ccccc1)Nc1cccc(OC(F)(F)F)c1 [Compound 3, Se‐(2‐oxo‐2‐((3‐(trifluoromethoxy)phenyl)amino)ethyl)benzoselenoate] | −43.99 | -50.78 | 2.33 | 13.6 | 2.45 | 18.2 | -50.62 | cytostatic behavior |  | -48.28 | 6 to 10 | 3.06 | 19.6 | -45.08 | ~64 | 9.67 ± 0.78 | < 10 | 63.7 ± 4.32
5 | O=C(C[Se]C(=O)c1ccco1)Nc1cccc(OC(F)(F)F)c1 [Compound 6, Se‐(2‐oxo‐2‐((3‐(trifluoromethoxy)phenyl)amino)ethyl)furan‐2‐carboselenoate] |  | 5.95 | 4.95 |  | 8.37 |  | -18.35 | cytostatic behavior |  | -15.23 | 6 to 10 | 6.45 | > 100 | -10.87 |  | 10.1 ± 1.27 | < 10 | 
